Source: patent publication US5783703A, “Sulfur-containing compounds method for their use and prodction” (Lederle (Japan), Ltd., priority 1993, dated 1998)
≈ marks a conversion by molar mass, not a printed value. Where two headings read alike, the source gives them in different places.

Columns and labels:
[1] = tested on: S. marcescens; experiment: Antibacterial activities against clinically isolated microorganism; assay type: cell-based; details: Serratia marcescens, 27 strains clinically isolated in Japan
Description: (§1) The following strains clinically isolated freshly in Japan were used in this test.
S. marcescens 27 strains
(§2) 2. The test was carried out by the agar plate dilution method in accordance with the standard method of The Japanese Chemotherapy Society. The minimum inhibitory concentration (MIC) was determined in substantially the same manner as the test procedures described in Test I.

[2] = tested on: E. cloacae; experiment: as above; assay type: cell-based; details: Enterobacter cloacae, 14 strains clinically isolated in Japan
Description: as §1, §2

[3] = tested on: MRSA; experiment: as above; assay type: cell-based; details: Staphylococcus aureus, read-out: MIC50 against clinically isolated microorganism
Description: as §1, §2

[4] = tested on: K. pneumoniae; experiment: as above; assay type: cell-based; details: Klebsiella pneumoniae, 23 strains clinically isolated in Japan
Description: as §1, §2

[5] = tested on: S. epidermidis; experiment: as above; assay type: cell-based; details: Staphylococcus epidermidis, 23 strains clinically isolated in Japan
Description: as §1, §2

[6] = tested on: E. faecalis; experiment: as above; assay type: cell-based; details: Enterococcus faecalis, read-out: MIC50 against clinically isolated microorganism
Description: as §1, §2

[7] = In situ absorption from rat intestinal loop; assay type: in vivo, rats of Wistar strain; details: rat jejunal loop, 20 mg/kg
Description: 7-week-old male rats of Wistar strain were used after fasting overnight. After anesthetizing the animals with ether, the intestine was exteriorized and an acute loop of 30 cm length was prepared from the upper part of jejunum by ligature of both ends. 0.2% physiological saline solutions of the test compounds were injected at a dose of 20 mg/kg into the loop with a syringe, and the loop was returned. About 0.4 ml blood was taken from the vena jugularis at 10, 30, 60 and 120 minutes after dosing.

[8] = Oral absorption study in mice; assay type: in vivo, mice of ddY strain; details: 100 mg/kg
Description: 5-week-old male mice of ddY strain were used after fasting overnight. The test compounds in 1% physiological saline solution at a dose of 100 mg/kg were administered orally to a group of 2 mice. Blood was taken from the vena jugularis at 15, 30, 60 and 120 minutes after dosing.

[9] = tested on: S. paratyphi 1015; experiment: Antibacterial test, agar plate dilution method (MIC), standard strains; assay type: cell-based; details: Salmonella enterica, 18 h
Description: (§3) The antibacterial activities were tested by an agar plate dilution method in accordance with the standard method of The Japanese Chemotherapy Society [Chemotherapy, Vol. 29, 76-79 (1981)].
(§4) A Mueller-Hinton (MH) agar liquid medium of a test microorganism was cultured overnight at 37° C. and the resultant culture medium was diluted with a buffered saline gelatin (BSG) solution to contain approximately 10^6 cells of the test microorganisms per milliliter, and then the diluted solution was inoculated with a microplanter at the rate of approximately 5 microliters on a MH agar medium containing a test compound. This medium was then incubated at 37° C. for 18 hours. The minimum inhibitory concentration (MIC) is determined as a minimum concentration in which no test microorganism could grow. It is noted here that the test organisms used were all standard strains.

[10] = tested on: S. aureus MS353; experiment: as above; assay type: cell-based; details: Staphylococcus aureus, MH agar, 37° C., 18 hours
Description: as §3, §4

[11] = tested on: P. vulgaris HX-19; experiment: as above; assay type: cell-based; details: Proteus vulgaris, HX19, MH agar, 37° C., 18 hours
Description: as §3, §4

[12] = tested on: E. aerogenes ATCC 13048; experiment: as above; assay type: cell-based; details: Klebsiella aerogenes, ATCC13048, MH agar, 37° C., 18 hours
Description: as §3, §4

[13] = tested on: P. mirabilis IFO 3849; experiment: as above; assay type: cell-based; details: Proteus mirabilis, IFO3849, MH agar, 37° C., 18 hours
Description: as §3, §4

[14] = tested on: S. typhi 901; experiment: as above; assay type: cell-based; details: Salmonella enterica, 18 h
Description: as §3, §4

[15] = tested on: B. subtilis ATCC 6633; experiment: as above; assay type: cell-based; details: Bacillus subtilis, ATCC6633, MH agar, 37° C., 18 hours
Description: as §3, §4

[16] = tested on: E. coli K-12 C600; experiment: as above; assay type: cell-based; details: Escherichia coli, K12C600, MH agar, 37° C., 18 hours
Description: as §3, §4

[17] = tested on: E. coli NIHJ JC-2; experiment: as above; assay type: cell-based; details: Escherichia coli, NIHJJC2, MH agar, 37° C., 18 hours
Description: as §3, §4

[18] = tested on: P. vulgaris OX-19; experiment: as above; assay type: cell-based; details: Proteus vulgaris, OX19, MH agar, 37° C., 18 hours
Description: as §3, §4

[19] = tested on: S. aureus Terajima; experiment: as above; assay type: cell-based; details: Staphylococcus aureus, MH agar, 37° C., 18 hours
Description: as §3, §4

[20] = tested on: M. morganii IFO 3848; experiment: as above; assay type: cell-based; details: Morganella morganii, IFO3848, MH agar, 37° C., 18 hours
Description: as §3, §4

[21] = tested on: E. cloacae 963; experiment: as above; assay type: cell-based; details: Enterobacter cloacae, MH agar, 37° C., 18 hours
Description: as §3, §4

[22] = tested on: K. pneumoniae PCI-602; experiment: as above; assay type: cell-based; details: Klebsiella pneumoniae, PCI602, MH agar, 37° C., 18 hours
Description: as §3, §4

[23] = tested on: S. enteritidis G14; experiment: as above; assay type: cell-based; details: Salmonella enterica, MH agar, 37° C., 18 hours
Description: as §3, §4

[24] = tested on: M. luteus ATCC 9341; experiment: as above; assay type: cell-based; details: Micrococcus luteus, ATCC9341, MH agar, 37° C., 18 hours
Description: as §3, §4

[25] = tested on: S. pyogenes Cook; experiment: as above; assay type: cell-based; details: Streptococcus pyogenes, MH agar, 37° C., 18 hours
Description: as §3, §4

[26] = tested on: P. rettgeri IFO 3850; experiment: as above; assay type: cell-based; details: Providencia rettgeri, IFO3850, MH agar, 37° C., 18 hours
Description: as §3, §4

[27] = tested on: S. aureus FDA209P JC-1; experiment: as above; assay type: cell-based; details: Staphylococcus aureus, MH agar, 37° C., 18 hours
Description: as §3, §4

[28] = tested on: S. typhimurium 11D971; experiment: as above; assay type: cell-based; details: Salmonella enterica, MH agar, 37° C., 18 hours
Description: as §3, §4

[29] = tested on: S. schottmuelleri 8006; experiment: as above; assay type: cell-based; details: MH agar, 37° C., 18 hours
Description: as §3, §4

[30] = tested on: S. marcescens IAM 1184; experiment: as above; assay type: cell-based; details: Serratia marcescens, IAM1184, MH agar, 37° C., 18 hours
Description: as §3, §4

[31] = Storage stability of the crystal at room temperature; assay type: physicochemical; details: dehumidified state, one month
From the text: The 3-mercapto-1-(1,3-thiazolin-2-yl)azetidine hydrochloride (8) in the form of crystal obtained in the above Example 6 was left still in dehumidified state at a room temperature for one month.

[32] = 28 strains clinically isolated in Japan
[33] = only deesterified Compound (28) detected
[34] = plasma, for (32) and (33) shown as Compound (28)
[35] = mouse, plasma, for (32) and (33) shown as Compound (28)

Work on `C[C@@H](O)[C@H]1C(=O)N2C(C(=O)O)=C(SCCN=CN)C[C@H]12` [Imipenem, imipenem] yielded an MIC50 [1] of 1.56 µg/mL (≈ 5.21 µM), an MIC50 [2] of 0.2 µg/mL (≈ 0.668 µM) and an MIC50 [3, 32] of 3.13 µg/mL (≈ 10.5 µM). The MIC50 [4] was 0.2 µg/mL (≈ 0.668 µM), the MIC50 [5] was 0.2 µg/mL (≈ 0.668 µM) and the MIC50 [6] was 0.78 µg/mL (≈ 2.61 µM).
In the case of `CC(OC(=O)OC1CCCCC1)OC(=O)C1=C(SC2CN(C3=NCCS3)C2)[C@H](C)[C@@H]2[C@@H]([C@@H](C)O)C(=O)N12` (stereo partly drawn) [Compound (33), 1-[(cyclohexyloxy)carbonyloxy] ethyl (1R,5S,6S)-2-[1-(1,3-thiazolin-2-yl)azetidin-3-yl]thio-6-[(R)-1-hydroxyethyl]-1-methylcarbapen-2-em-3-carboxylate], the “plasma level of the administered ester itself” value [7, 33] is reported as “undetectable” and the “plasma level of the administered ester itself” value [8, 33] is reported as “undetectable”.
`COCOC[C@@H]1CSC(N2CC(SC3=C(C(=O)O)N4C(=O)[C@H]([C@@H](C)O)[C@H]4[C@H]3C)C2)=N1` [Compound (31), (1R,5S,6S)-2-[1-((4R)-methoxymethyloxymethyl-1,3-thiazolin-2-yl)azetidin-3-yl]thio-6-[(R)-1-hydroxyethyl]-1-methyl-carbapen-2-em-3-carboxylic acid] showed an MIC [9] of 0.05 µg/mL (≈ 0.109 µM), an MIC [10] of 0.025 µg/mL (≈ 0.0546 µM) and an MIC [11] of 0.39 µg/mL (≈ 0.852 µM). It also gave an MIC [12] of 0.39 µg/mL (≈ 0.852 µM), an MIC [13] of 0.78 µg/mL (≈ 1.7 µM) and an MIC [14] of 0.05 µg/mL (≈ 0.109 µM). The MIC [15] was 0.025 µg/mL (≈ 0.0546 µM), the MIC [16] was 0.2 µg/mL (≈ 0.437 µM) and the MIC [17] was 0.05 µg/mL (≈ 0.109 µM). It also gave an MIC [18] of 0.1 µg/mL (≈ 0.219 µM), an MIC [19] of no more than 0.006 µg/mL and an MIC [20] of 0.2 µg/mL (≈ 0.437 µM). The MIC [21] was 0.2 µg/mL (≈ 0.437 µM), the MIC [22] was 0.013 µg/mL (≈ 0.0284 µM) and the MIC [23] was 0.2 µg/mL (≈ 0.437 µM). It also gave an MIC [24] of 0.2 µg/mL (≈ 0.437 µM), an MIC [25] of no more than 0.006 µg/mL and an MIC [26] of 6.25 µg/mL (≈ 13.7 µM). For the same molecule, the MIC [27] was 0.05 µg/mL (≈ 0.109 µM), the MIC [28] was 0.1 µg/mL (≈ 0.219 µM) and the MIC [29] was 0.2 µg/mL (≈ 0.437 µM). The MIC [30] was 0.39 µg/mL (≈ 0.852 µM).
With `Cl.SC1CN(C2=NCCS2)C1` [compound (8), 3-mercapto-1-(1,3-thiazolin-2-yl)azetidine hydrochloride] the “purity after storage (storage stability)” value [31] was “did not change at all”.
`C[C@@H](O)[C@H]1C(=O)N2C(C(=O)O)=C(SC3CN(C4=NCCS4)C3)[C@H](C)[C@H]12` [Compound (28), (1R,5S,6S)-2-[1-(thiazolin-2-yl)azetidin-3-yl]thio-6-[(R)-1-hydroxyethyl]-1-methyl-carbapen-2-em-3-carboxylic acid] showed an MIC [9] of 0.05 µg/mL (≈ 0.13 µM), an MIC [10] of no more than 0.006 µg/mL and an MIC [11] of 0.1 µg/mL (≈ 0.261 µM). For the same molecule, the MIC [12] was 0.1 µg/mL (≈ 0.261 µM), the MIC [13] was 0.39 µg/mL (≈ 1.02 µM) and the MIC [14] was no more than 0.006 µg/mL. It also gave an MIC [15] of 0.025 µg/mL (≈ 0.0652 µM), an MIC [16] of 0.1 µg/mL (≈ 0.261 µM) and an MIC [17] of 0.013 µg/mL (≈ 0.0339 µM). It also gave an MIC [18] of 0.1 µg/mL (≈ 0.261 µM), an MIC [19] of no more than 0.006 µg/mL and an MIC [20] of 0.39 µg/mL (≈ 1.02 µM). It also gave an MIC [21] of 0.05 µg/mL (≈ 0.13 µM), an MIC [22] of 0.013 µg/mL (≈ 0.0339 µM) and an MIC [23] of 0.39 µg/mL (≈ 1.02 µM). It also gave an MIC [24] of 0.2 µg/mL (≈ 0.522 µM), an MIC [25] of no more than 0.006 µg/mL and an MIC [26] of 0.39 µg/mL (≈ 1.02 µM). The MIC [27] was 0.013 µg/mL (≈ 0.0339 µM), the MIC [28] was 0.025 µg/mL (≈ 0.0652 µM) and the MIC [29] was 0.025 µg/mL (≈ 0.0652 µM). It also gave an MIC [30] of 0.05 µg/mL (≈ 0.13 µM), an MIC50 [1] of 0.2 µg/mL (≈ 0.522 µM) and an AUC(0-t) at 2 h [7, 34] of 1000 ng·h/mL. The Cmax [7, 34] was 800 ng/mL, the MIC50 [2] was 0.1 µg/mL (≈ 0.261 µM) and the MIC50 [3, 32] was 0.78 µg/mL (≈ 2.03 µM). It also gave an MIC50 [4] of 0.025 µg/mL (≈ 0.0652 µM), an MIC50 [5] of 0.39 µg/mL (≈ 1.02 µM) and an MIC50 [6] of 0.39 µg/mL (≈ 1.02 µM). It also gave an AUC(0-t) at 2 h [8, 35] of 5000 ng·h/mL and a Cmax [8, 35] of 3500 ng/mL.
`CC(C)(O/N=C(\C(=O)N[C@@H]1C(=O)N2C(C(=O)[O-])=C(C[n+]3ccccc3)CS[C@H]12)c1csc(N)n1)C(=O)O` [CAZ, ceftazidime] gave an MIC50 [1] of 0.39 µg/mL (≈ 0.714 µM), an MIC50 [2] of 1.56 µg/mL (≈ 2.85 µM) and an MIC50 [3] of 100 µg/mL (≈ 183 µM). It also gave an MIC50 [4] of 0.2 µg/mL (≈ 0.366 µM), an MIC50 [5] of 12.5 µg/mL (≈ 22.9 µM) and an MIC50 [6] of 25 µg/mL (≈ 45.7 µM).
